# The OPERA property sets (Mansouri et al. 2018)
# Conditions: not given
row,SMILES,solubility [µM]
1,CCOP(=O)(OCC)Oc1cc(C)[nH]n1,4270
2,C=C(C)C(=O)Nc1ccc(Cl)c(Cl)c1,36.9
3,O=c1[nH]cc(Br)c(=O)[nH]1,4270
4,COCCNC(=O)CSP(=S)(OC)OC,73200
5,CCCN(CCC)c1c([N+](=O)[O-])cc(C)cc1[N+](=O)[O-],1080
6,O=C(NN=C1C=CC(=NO)C=C1)c1ccccc1,20.7

# Same assay, conditions: 20 °C
row,SMILES,solubility [µM]
1,c1cc[n+]2c(c1)-c1cccc[n+]1CC2,376

# Same assay, conditions: 21 °C
row,SMILES,solubility [µM]
1,CNc1nc(NC(C)C)nc(OC)n1,17700

# Same assay, conditions: 25 °C
row,SMILES,solubility [µM]
1,C/C=C(/C)C(=O)O[C@H]1CC[C@@]2(C)[C@@H]3CC[C@H]4[C@]5(O)C[C@H](O)[C@@]6(O)[C@@H](CN7C[C@@H](C)CC[C@H]7[C@@]6(C)O)[C@]5(O)C[C@@]42O[C@]13O,963
2,CCOP(=O)(OC=CCl)OCC,46600
3,Cc1nn(-c2ccccc2)c(C)c1N=O,184
4,CC(Cl)=CCl,24300
